Where a name gives a salt, the structure may show the parent alone.
Tests used:
human factor Xa = target: T1, human factor Xa (Homo sapiens, UniProt P00742); assay: Kass determination, chromogenic substrate hydrolysis, factor Xa; format: biochemical; settings: apparent association constant, mean value; set range given with 'or greater'
T1 construct: enzyme solution (e.g., human factor Xa, 32 nM in 0.03 M Tris, 0.15 M NaCl, 1 mg/mL HAS)
Method: (§1) The inhibition by a compound of the invention of a serine protease of the human blood coagulation system or of the fibrinolytic system, as well as of trypsin, is determined in vitro for the particular enzyme by measuring its inhibitor binding affinity in an assay in which the enzyme hydrolyzes a particular chromogenic substrate, for example as described in Smith, G. F.; Gifford-Moore, D.; Craft, T. J.; Chirgadze, N.; Ruterbories, K. J.; Lindstrom, T. D.; Satterwhite, J. H. Efegatran: A New Cardiovascular Anticoagulant. New Anticoagulants for the Cardiovascular Patient; Pifarre, R., Ed.; Hanley & Belfus, Inc.: Philadelphia, 1997; pp. 265-300. The inhibitor binding affinity is measured as apparent association constant Kass which is the hypothetical equilibrium constant for the reaction between enzyme and the test inhibitor compound (I).
(§2) [formula] [formula] Conveniently, enzyme inhibition kinetics are performed in a high-volume protocol using automated dilutions of inhibitors (n=3 for each of four to eight inhibitor concentrations) into 96-well polystyrene plates and reaction rates are determined from the rate of hydrolysis of appropriate p-nitroanilide substrates at 405 nm using a Thermomax plate reader from Molecular Devices (San Francisco, Calif.). The same general protocol is followed for all enzymes studied: In each well is placed 50 μL buffer (0.06 M Tris, 0.3 M NaCl, pH 7.4), followed by 25 μL of inhibitor solution (in 100 % methanol) and 25 μL enzyme solution (e.g., human factor Xa, 32 nM in 0.03 M Tris, 0.15 M NaCl, 1 mg/mL HAS); finally, within two minutes, 150 μL aqueous solution of chromogenic substrate (e.g., 0.3 mM BzIle-Glu-Gly-Arg-pNA) is added to start the enzymatic reaction. Final factor Xa concentration is 3.2 nM. The rates of chromogenic substrate hydrolysis reactions provide a linear relationship with the enzymes studied such that free enzyme can be quantitated in reaction mixtures. Data is analyzed directly as rates by the Softmax program to produce [free enzyme] calculations for tight-binding Kass determinations. For apparent Kass determinations, human factor Xa is used to hydrolyze BzIle-Glu-Gly- Arg-pNA (SEQ ID NO: 1); 5.9 nM human thrombin is used to hydrolyze 0.2 mM BzPhe-Val-Arg-pNA; 3.4 nM human plasmin is used with 0.5 mM HD-Val-Leu-Lys-pNA; 1.2 nM human nt-PA is used with 0.8 mM HD-Ile-Pro-Arg-pNA; and 0.4 nM urokinase is used with 0.4 mM pyro-Glu-Gly-Arg-pNA.
(§3) Kass is calculated for a range of concentrations of test compounds which produce hydrolysis inhibition of between 20% and 80% of control and the mean value reported in units of liter per mole. […] For example, the respective Kass values as to factor Xa/thrombin for Examples 41, 60, 106, 115, 1403 and 1414 are 407/16.9, 430/4.2, 3630/308, 3013/40 and 3630/308×10^6 L/mole.

human thrombin = human thrombin (Homo sapiens, UniProt P00734); assay: Kass determination, chromogenic substrate hydrolysis, thrombin; format: biochemical; settings: apparent association constant, mean value; set range given with 'or greater'
Method: as §1, §2, §3

T1 sequence (P00742 235-488 limits assumed): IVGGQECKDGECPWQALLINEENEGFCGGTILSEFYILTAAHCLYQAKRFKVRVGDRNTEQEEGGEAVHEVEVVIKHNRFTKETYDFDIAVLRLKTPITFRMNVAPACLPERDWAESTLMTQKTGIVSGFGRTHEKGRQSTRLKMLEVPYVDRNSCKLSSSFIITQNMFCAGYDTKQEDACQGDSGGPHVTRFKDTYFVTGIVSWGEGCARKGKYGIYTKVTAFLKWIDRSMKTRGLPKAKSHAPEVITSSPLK
T1 sequence (P00742 41-179 partner limits assumed): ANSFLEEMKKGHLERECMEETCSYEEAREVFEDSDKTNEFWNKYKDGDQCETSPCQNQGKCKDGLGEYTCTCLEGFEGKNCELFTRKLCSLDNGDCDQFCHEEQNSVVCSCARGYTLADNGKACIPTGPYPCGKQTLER

SMILES	Kass for factor Xa (human factor Xa)	Kass for thrombin (factor IIa) (human thrombin)	melting point
NCCCOc1cc(N2CCOCC2)ccc1C(=O)Nc1ccc(F)cc1C(=O)Nc1ccc(Cl)cn1 [Example 115, 2-[2-(3-Aminopropoxy)-4-(morpholin-4-yl)benzoylamino]-N-(5-chloropyridin-2-yl)-5-fluorobenzamide]	3.013e+09 L/mol	4e+07 L/mol	
CC(C)(C)c1ccc(CNc2ccccc2C(=O)Nc2ccc(Cl)cn2)c(OC2CCNCC2)c1 [Example 59, 2-[4-(tert-Butyl)-2-(piperidin-4-yloxy)benzylamino]-N-(5-chloro-pyridin-2-yl)benzamide]			169 to 170 °C
CC(C)(N)c1ccc(C(=O)Nc2ccccc2C(=O)Nc2ccc(Cl)cn2)c(OC2CCNCC2)c1 [Example 60, 2-[4-(1-Amino-1-methyl)ethyl-2-(piperidin-4-yloxy)benzoylamino]-N-(5-chloropyridin-2-yl)benzamide Bis(trifluoroacetate)]	4.3e+08 L/mol	4.2e+06 L/mol	
CC(C)(C)c1ccc(CNc2ccc(Cl)cc2C(=O)Nc2ccc(Cl)cn2)c(OC2CCNCC2)c1 [Example 56, 2-[4-(tert-Butyl)-2-(piperidin-4-yloxy)benzylamino]-5-chloro-N-(5-chloropyridin-2-yl)benzamide]			153.6 to 154.5 °C
NCCOc1cc(N2CCOCC2)ccc1C(=O)Nc1ccc(F)cc1C(=O)Nc1ccc(Cl)cn1 [Example 41, 2-[2-(2-Aminoethoxy)-4-(morpholin-4-yl)benzoylamino]-N-(5-chloro-pyridin-2-yl)-5-fluorobenzamide Trifluoroacetate]	4.07e+08 L/mol	1.69e+07 L/mol	
CSc1ccc(C(=O)Nc2ccc(Cl)cc2C(=O)Nc2ccc(Cl)cn2)c(OCCCN)c1 [Example 106, 2-[2-(3-Aminopropoxy)-4-(methylthio)benzoylamino]-5-chloro-N-(5-chloropyridin-2-yl)benzamide]	3.63e+09 L/mol	3.08e+08 L/mol	

Reference: patent publication US7700628B2, “Aromatic ether derivatives useful as thrombin inhibitors” (Eli Lilly and Company, priority 2004, dated 2010)
